Measurements taken from patent US20100227853A1, “INHIBITORS OF CYCLIC AMP PHOSPHODIESTERASES” (Trustees of Boston College, priority 2008, published 2010).
One block for each compound: values may come before it.

Experiments:
[1] = biological target: PDE4B (Homo sapiens, UniProt Q07343); test: in vitro enzyme assay PDE4B (Table 7); format: biochemical; details: 2 micromolar compound; for remaining activity at 2 µM: read-out: percent of PDE activity present, PDE4B
[2] = biological target: PDE4D (Homo sapiens, UniProt Q08499); test: in vitro enzyme assay PDE4D (Table 7); format: biochemical; details: 2 micromolar compound; for remaining activity at 2 µM: read-out: percent of PDE activity present, PDE4D
[3] = biological target: T1, PDE4A1 (Mus musculus, UniProt O89084); test: 5FOA growth assay (high throughput screen, ED50) in fission yeast strain expressing PDE4A1; format: cell-based; details: high throughput 5FOA growth screen; greater than 8.53 = statistically-significant inhibitor
T1 construct: targets used in the assays are full-length proteins (as opposed to simply the catalytic domain); expressed in transfected cells; host or cells: Schizosaccharomyces pombe, PDE gene integrated in place of cgs2
T1 sequence (O89084 1-610 isoform O89084-2): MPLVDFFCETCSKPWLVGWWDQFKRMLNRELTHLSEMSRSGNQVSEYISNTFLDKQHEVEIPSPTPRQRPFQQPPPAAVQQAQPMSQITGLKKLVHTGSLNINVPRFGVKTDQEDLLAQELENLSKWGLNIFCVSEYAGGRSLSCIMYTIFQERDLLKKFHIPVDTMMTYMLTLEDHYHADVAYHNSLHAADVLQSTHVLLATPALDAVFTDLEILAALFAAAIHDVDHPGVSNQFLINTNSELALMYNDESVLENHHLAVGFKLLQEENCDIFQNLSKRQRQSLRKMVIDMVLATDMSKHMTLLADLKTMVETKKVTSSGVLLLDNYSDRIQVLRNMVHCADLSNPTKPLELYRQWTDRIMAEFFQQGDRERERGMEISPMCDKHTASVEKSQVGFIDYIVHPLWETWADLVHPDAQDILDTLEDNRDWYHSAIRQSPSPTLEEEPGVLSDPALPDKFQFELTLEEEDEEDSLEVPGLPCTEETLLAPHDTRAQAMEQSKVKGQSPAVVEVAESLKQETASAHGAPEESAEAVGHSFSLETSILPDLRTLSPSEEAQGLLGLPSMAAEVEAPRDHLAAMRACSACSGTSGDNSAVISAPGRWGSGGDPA
Procedure, shortened: (§1)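 Fission yeast strains carrying mouse PDE4A1 or PDE4B3 and an fbp1-ura4 reporter were pregrown in EMM with 0.5–2.5 mM cAMP, then seeded at 0.5–4×10^5 cells/ml in 5FOA medium with compound. Growth was read as OD600 after 48 h at 30° C; composite Z scores were derived.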

[4] = biological target: PDE4A (Homo sapiens, UniProt P27815); test: in vitro enzyme assay PDE4A (Table 7); format: biochemical; details: 2 micromolar compound; for remaining activity at 2 µM: read-out: percent of PDE activity present, PDE4A
[5] = biological target: T2, PDE7A (Homo sapiens, UniProt Q13946); test: in vitro enzyme assay PDE7A; format: biochemical; design: made in house; host or cells: E. coli; details: 2 micromolar compound
[6] = biological target: T2, PDE7A; test: 5FOA growth assay in fission yeast strain expressing PDE7A; format: cell-based; design: targets used in the assays are full-length proteins (as opposed to simply the catalytic domain); expressed in transfected cells; host or cells: Schizosaccharomyces pombe, PDE gene integrated in place of cgs2; details: unit not given
Procedure: PDE inhibition allows growth in 5FOA medium as measured by optical density after 48 hours incubation at 30° C. Compound BC12 and six structural analogs were tested for growth stimulation.
Cells were pregrown in EMM medium [MP Biomedicals (Solon, Ohio), 3% glucose, filter-sterilized to avoid carmelization, which would introduce variability into the optical density of the medium] containing from 0 mM to 2.5 mM cAMP (or either 0.5 mM or 1.0 mM cGMP). This was to repress expression of the fbp1-ura4 reporter prior to exposure of cells to 5FOA medium. Cells were grown at 30° C. to exponential phase (approximately 10^7 cells/ml). Cells were collected by centrifugation and resuspended in 5FOA medium, and 25 μl were transferred to 384-well microtiter dishes (untreated, with flat clear bottoms) that had been pre-filled with 25 μl 5FOA medium and pre-pinned with 100 nl of compounds (stock solutions were generally 10 mM). Starting cell concentrations ranged from 0.5×10^5 to 4×10^5 cells/ml depending on the screening strain. […] Other positive control dishes contained 5 mM cAMP in the 5FOA medium for PDEs that lack appropriate control compounds. Cultures were grown for 48 hours at 30° C., sealed in an airtight container with moist paper towels to prevent evaporation. Optical densities (OD600) of cultures were measured using a microplate reader. Bioinformatic analysis of the results to determine composite Z scores was performed as previously described (1, 3).

[7] = biological target: T3, PDE4B3 (Mus musculus, UniProt Q8VBU5); test: 5FOA growth assay in fission yeast strain expressing PDE4B3; format: cell-based, Murine; details: 20 uM
T3 construct: targets used in the assays are full-length proteins (as opposed to simply the catalytic domain); expressed in transfected cells; host or cells: Schizosaccharomyces pombe, PDE gene integrated in place of cgs2
T3 sequence (Q8VBU5 1-721): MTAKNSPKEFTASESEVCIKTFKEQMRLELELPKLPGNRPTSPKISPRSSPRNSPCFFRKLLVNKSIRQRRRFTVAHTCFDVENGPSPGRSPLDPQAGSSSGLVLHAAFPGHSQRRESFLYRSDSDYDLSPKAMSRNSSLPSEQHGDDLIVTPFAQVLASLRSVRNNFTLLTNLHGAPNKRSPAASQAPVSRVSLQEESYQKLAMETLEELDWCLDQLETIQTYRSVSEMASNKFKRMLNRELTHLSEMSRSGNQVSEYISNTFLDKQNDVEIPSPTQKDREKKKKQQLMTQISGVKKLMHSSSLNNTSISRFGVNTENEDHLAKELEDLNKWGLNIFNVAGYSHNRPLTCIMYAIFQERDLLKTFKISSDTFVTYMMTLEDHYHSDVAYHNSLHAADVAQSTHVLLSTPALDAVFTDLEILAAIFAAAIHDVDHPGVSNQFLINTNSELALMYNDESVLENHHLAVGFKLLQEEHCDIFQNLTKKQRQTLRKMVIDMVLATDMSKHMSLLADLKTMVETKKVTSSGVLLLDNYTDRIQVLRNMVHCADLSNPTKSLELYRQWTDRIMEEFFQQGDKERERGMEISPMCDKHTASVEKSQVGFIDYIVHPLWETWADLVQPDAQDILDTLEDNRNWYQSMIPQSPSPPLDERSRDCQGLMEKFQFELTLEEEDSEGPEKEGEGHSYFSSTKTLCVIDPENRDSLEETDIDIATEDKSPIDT
Procedure, shortened: as §1

[8] = tested on: PDE4A, PDE4B, PDE4D, PDE7A, PDE7B, PDE8A, PDE3A; test: Summary of PDE inhibitor profile; design: key to PDE inhibitor profile (Table 17): (1): Strong PDE4A, PDE4B inhibitor; (2): Strong PDE4A inhibitor; (3): Strong PDE4B, moderate PDE4A inhibitor; (4): Moderate PDE4A, PDE4B inhibitor; (5): Moderate PDE4B inhibitor; key to inhibitor class, Table 16: (1): Weak PDE7A inhibitor; (2): Strong PDE7A inhibitor; (3): Lillte/no activity under conditions used; (4): Weak PDE4A inhibitor
[9] = tested on: PDE2A, PDE4A, PDE4B, Cgs2; test: Parallel high throughput 5FOA growth screens of bioactive libraries; format: cell-based, murine PDEs; yeast Cgs2; details: 3,120 bioactive compounds, average 20 μM
Procedure: High throughput drug screens were carried out at the Broad Institute's Chemical Biology Program screening facility (Broad Institute, Cambridge, Mass.). Depending upon the strain, cultures were pregrown to exponential phase in EMM complete medium containing from 0.5 to 2.5 mM cAMP to repress fbp1-ura4 transcription. […] Starting cell concentrations ranged from 0.5×10^5 to 4×10^5 cells/ml depending on the screening strain. […] Other positive control dishes contained 5 mM cAMP in the 5FOA medium. Cultures were grown for 48 hours at 30° C., sealed in an airtight container with moist paper towels to prevent evaporation. Optical densities (OD600) of cultures were measured using a microplate reader. Bioinformatic analysis of the results to determine composite Z scores was performed as previously described^30, 31.

[10] = tested on: U937 cells; test: TNF alpha release by LPS-treated U937 cells; format: cell-based; details: for TNF alpha, % vehicle control: 10 uM cmpd, 0 uM BC30

Sequence of PDE4A (P27815 whole entry, species assumed): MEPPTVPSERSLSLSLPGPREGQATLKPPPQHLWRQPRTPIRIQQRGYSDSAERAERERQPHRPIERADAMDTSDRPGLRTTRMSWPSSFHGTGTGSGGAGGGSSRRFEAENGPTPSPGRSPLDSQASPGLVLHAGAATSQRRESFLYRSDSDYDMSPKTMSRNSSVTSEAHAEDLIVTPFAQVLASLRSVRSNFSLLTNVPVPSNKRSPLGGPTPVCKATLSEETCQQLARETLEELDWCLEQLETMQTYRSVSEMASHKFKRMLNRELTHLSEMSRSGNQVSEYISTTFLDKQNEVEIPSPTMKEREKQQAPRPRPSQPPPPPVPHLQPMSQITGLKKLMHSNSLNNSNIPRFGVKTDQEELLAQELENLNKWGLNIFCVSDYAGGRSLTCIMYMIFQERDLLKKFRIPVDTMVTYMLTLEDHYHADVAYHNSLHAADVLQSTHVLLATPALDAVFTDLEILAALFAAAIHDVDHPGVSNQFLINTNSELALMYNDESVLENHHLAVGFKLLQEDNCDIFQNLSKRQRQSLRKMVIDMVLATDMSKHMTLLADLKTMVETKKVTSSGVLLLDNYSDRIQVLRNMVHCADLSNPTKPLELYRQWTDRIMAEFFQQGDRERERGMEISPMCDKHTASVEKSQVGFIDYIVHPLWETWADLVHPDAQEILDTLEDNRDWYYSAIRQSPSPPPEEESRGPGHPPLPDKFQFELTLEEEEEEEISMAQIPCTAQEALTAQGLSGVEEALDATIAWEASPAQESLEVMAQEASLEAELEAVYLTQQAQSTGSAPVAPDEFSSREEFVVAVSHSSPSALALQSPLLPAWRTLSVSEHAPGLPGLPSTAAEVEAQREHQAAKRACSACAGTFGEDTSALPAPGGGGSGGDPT
Sequence of PDE4B (Q07343 whole entry, species assumed): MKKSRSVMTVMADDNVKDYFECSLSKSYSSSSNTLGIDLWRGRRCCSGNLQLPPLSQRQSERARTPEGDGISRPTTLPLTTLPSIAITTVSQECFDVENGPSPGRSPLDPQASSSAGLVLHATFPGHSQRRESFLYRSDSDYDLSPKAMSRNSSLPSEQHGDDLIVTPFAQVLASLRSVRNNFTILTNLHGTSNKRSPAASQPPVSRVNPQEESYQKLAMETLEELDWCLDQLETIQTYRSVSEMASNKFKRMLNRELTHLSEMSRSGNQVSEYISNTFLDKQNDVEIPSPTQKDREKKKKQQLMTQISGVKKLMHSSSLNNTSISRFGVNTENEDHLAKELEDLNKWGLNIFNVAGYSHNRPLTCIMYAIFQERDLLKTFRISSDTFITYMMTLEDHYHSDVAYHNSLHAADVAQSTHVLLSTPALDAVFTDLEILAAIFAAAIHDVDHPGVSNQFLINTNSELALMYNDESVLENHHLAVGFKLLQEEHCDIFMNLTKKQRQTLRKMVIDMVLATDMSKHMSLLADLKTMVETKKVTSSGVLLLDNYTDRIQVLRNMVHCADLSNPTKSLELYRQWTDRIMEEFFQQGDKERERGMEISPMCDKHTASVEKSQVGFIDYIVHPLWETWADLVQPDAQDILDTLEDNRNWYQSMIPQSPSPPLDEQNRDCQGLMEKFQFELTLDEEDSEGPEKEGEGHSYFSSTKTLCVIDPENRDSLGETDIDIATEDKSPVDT
T2 sequence (Q13946 whole entry, the tested form may be a part): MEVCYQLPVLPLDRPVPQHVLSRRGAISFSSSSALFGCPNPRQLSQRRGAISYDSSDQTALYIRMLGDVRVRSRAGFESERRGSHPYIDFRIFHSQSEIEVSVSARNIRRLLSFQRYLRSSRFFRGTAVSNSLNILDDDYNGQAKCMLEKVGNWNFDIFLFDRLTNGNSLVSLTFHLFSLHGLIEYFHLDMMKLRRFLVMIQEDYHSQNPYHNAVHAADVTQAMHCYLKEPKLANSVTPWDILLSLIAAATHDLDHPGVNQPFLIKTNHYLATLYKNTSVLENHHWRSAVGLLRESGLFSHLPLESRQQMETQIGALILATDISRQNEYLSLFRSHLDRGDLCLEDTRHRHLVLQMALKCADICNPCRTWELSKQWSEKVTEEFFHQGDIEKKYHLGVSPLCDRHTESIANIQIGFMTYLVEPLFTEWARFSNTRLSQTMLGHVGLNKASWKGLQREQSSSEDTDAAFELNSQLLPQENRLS
Sequence of PDE4D (Q08499 whole entry): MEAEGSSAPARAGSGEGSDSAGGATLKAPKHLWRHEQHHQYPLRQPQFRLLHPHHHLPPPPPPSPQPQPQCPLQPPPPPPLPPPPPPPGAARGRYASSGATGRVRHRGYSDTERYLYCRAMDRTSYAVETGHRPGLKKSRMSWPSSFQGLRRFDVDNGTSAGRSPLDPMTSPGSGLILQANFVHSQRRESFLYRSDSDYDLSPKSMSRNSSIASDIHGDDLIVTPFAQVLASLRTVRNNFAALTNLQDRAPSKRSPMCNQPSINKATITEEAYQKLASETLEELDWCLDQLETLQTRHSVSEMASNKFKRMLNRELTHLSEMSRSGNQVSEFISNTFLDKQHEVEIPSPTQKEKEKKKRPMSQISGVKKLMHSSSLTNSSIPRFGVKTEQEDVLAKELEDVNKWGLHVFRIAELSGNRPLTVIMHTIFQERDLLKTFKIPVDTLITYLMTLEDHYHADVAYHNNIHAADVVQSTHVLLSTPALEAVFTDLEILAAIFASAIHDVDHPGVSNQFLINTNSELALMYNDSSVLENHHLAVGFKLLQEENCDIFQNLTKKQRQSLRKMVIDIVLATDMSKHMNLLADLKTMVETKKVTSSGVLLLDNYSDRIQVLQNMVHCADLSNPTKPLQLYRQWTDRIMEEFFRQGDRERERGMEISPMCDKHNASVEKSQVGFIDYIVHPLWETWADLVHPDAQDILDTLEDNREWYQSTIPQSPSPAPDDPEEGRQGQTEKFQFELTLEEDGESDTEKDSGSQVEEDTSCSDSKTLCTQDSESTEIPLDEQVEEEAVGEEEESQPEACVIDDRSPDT

Structure (SMILES): N#Cc1sc2sc(C#N)c(-c3ccc(Cl)cc3)c2c1N [Compound 30-3]
ED50, 7A [6]: ND ND inactive ND ND
1 Assay (20 uM) 4B3 [7]: 1.462 ND ND ND ND
inhibitor class, Table 16 [8]: 554, N12 KM03474 30-3 (3)

Structure (SMILES): COc1c2occc2c(OC)c2c(=O)cc(C)oc12 [khellin]
hit in high throughput screens (promotes 5FOA^R growth), in words [9]: identified

Structure (SMILES): Cc1ccc([N+](=O)[O-])cc1S(=O)(=O)N(C)C [BRL]
TNF alpha (EtoH = 100.0) ([10]; 3 HOURS): 92.5
TNF ([10]; 3 HOURS, high BRL): 4565 pg/mL
TNF, % EtOH cntrl ([10]; 3 HOURS, high BRL): 94.5%
TNF ([10]; 3 HOURS, low BRL): 4491 pg/mL
TNF, % EtOH cntrl ([10]; 3 HOURS, low BRL): 93.0%
TNF alpha (EtoH = 100.0) ([10]; 20 HOURS): 102.6
TNF ([10]; 20 HOURS, high BRL): 13111 pg/mL
TNF, % EtOH cntrl ([10]; 20 HOURS, high BRL): 95.8%
TNF ([10]; 20 HOURS, low BRL): 12718 pg/mL
TNF, % EtOH cntrl ([10]; 20 HOURS, low BRL): 92.9%

Structure (SMILES): COc1c2ccoc2cc2oc(C)cc(=O)c12 [visnagin]
hit in high throughput screens (promotes 5FOA^R growth), in words [9]: identified

Structure (SMILES): CCOC(=O)c1sc2sc(C(=O)OCC)c(-c3ccco3)c2c1N [Compound 30-1]
ED50, 7A [6]: ND ND inactive ND ND
1 Assay (20 uM) 4B3 [7]: 8.4406 ND ND ND ND
inhibitor class, Table 16 [8]: 1441, C04 KM03459 30-1 (4)

Structure (SMILES): CC(C)n1c2ccc(Cl)cc2c2nc3ccccc3nc21 [Compound 35]
TNF ([10]; 3 HOURS): 4383 pg/mL
TNF, % EtOH cntrl ([10]; 3 HOURS): 90.7%
TNF ([10]; 20 HOURS): 11728 pg/mL
TNF, % EtOH cntrl ([10]; 20 HOURS): 85.7%
TNF alpha, % vehicle control ([10]; after 3 h.): 95.8%
TNF alpha, % vehicle control ([10]; after 20 h.): 66.1%
PDE inhibitor profile (Table 17) ([8]; overall classification, Table 17 footnotes): 35 (1)

Other lines, results leading:

remaining activity at 2 µM [1]: 15%
remaining activity at 2 µM [2]: 30%
Composite Z score, PDE4A1 [3]: 27.41
remaining activity at 2 µM [4]: 14%
remaining activity at 2 µM ([5]; read-out: percent of PDE activity present, PDE7A): 20%
Structure (SMILES): COc1cc(NC(=O)c2sc3ncnc(N4CCCCC4C)c3c2C)cc(OC)c1OC (centres unmarked) [Compound 58-3]

remaining activity at 2 µM [1]: 61%
remaining activity at 2 µM [2]: 68%
remaining activity at 2 µM [4]: 73%
percent of PDE activity present, PDE7A [5]: 75%
Structure (SMILES): CCN(CC)c1nc(C)nc2sc(C(=O)Nc3ccc(F)cc3F)c(C)c12 [Compound 58-6]

percent of PDE activity present, PDE4B [1]: 56%
percent of PDE activity present, PDE4D [2]: 76%
percent of PDE activity present, PDE4A [4]: 84%
percent of PDE activity present, PDE7A [5]: 48%
Structure (SMILES): CCN(CC)c1nc(C)nc2sc(C(=O)Nc3ccc(F)cc3F)c(C)c12 [Compound 58-8]
